This note sets out measurements from PubChem BioAssay AID1963969 (Molecular Pharmacology Branch, DTP, NCI, 2024).

The structures appear in SMILES notation. Values joined by “and” are separate entries in the source; they are usually repeats but may differ in a detail not shown here. Equal entries are not always repeated.

This test concerns 817829-284-R-J1-PDC multi-cell spheroid viability. The experiment in a line: Anticancer human tumor 817829-284-R-J1-PDC patient-derived colon adenocarcinoma cell line growth inhibition [PI3K]. The note with it: for viability, T/C: stronger effect = lower value. From the text: Combinatorial screen of targeted agents with the PI3K inhibitors inavolisib, alpelisib, duvelisib, and copanlisib in multi-cell type tumor spheroids
A high-throughput screen of multi-cell type tumor spheroids was designed to identify active combinations of targeted small molecules and PI3K pathway inhibitors. Complex spheroids include a stromal component modeled by human endothelial cells (HUVEC) and fibroblasts modeled by human mesenchymal stem cells (MSCs). The concentration ranges selected for each drug and investigational agent were based upon clinically achievable concentrations if the clinical Cmax of the agent was known.
Compounds. The drugs and investigational agents: inavolisib (NSC800729), alpelisib (NSC765974), duvelisib (NSC772469), copanlisib (NSC816437), ipatasertib (NSC767898), afuresertib (NSC778305), talazoparib (NSC767125), sapanisertib (NSC764658), selumetinib (NSC741078), tovorafenib (DAY101, NSC766906), vemurafenib (NSC761431), ravoxertinib (NSC781343), sotorasib (NSC818433), MRTX1133 (NSC 836407), abemaciclib (NSC 768073), palbociclib (NSC758247), venetoclax (NSC 766270), SY5609 (NSC837396), enzalutamide (NSC755605), and darolutamide (NSC825331), were obtained from the National Cancer Institute (NCI) Developmental Therapeutics Program Chemical Repository. The FDA-approved anticancer drug set is available from the NCI Developmental Therapeutics Program. […] The stock solutions were prepared in dimethyl sulfoxide (DMSO, Sigma-Aldrich, St. Louis, MO, cat. D2650) at 800-fold the tested concentration and stored at -70 degrees C prior to their use. All drugs and investigational agents were tested over a range starting from a high concentration at or near the clinical Cmax and decreasing in half-log increments. If the clinical Cmax for an agent had not been determined, the highest concentration tested was 10 microM.
Cell Culture. All cells were maintained in an incubator at 37 degrees C and 5% CO2 with 95% humidity. The PDC lines were cultured according to standard operating procedures established by the NCI PDMR (https://pdmr.cancer.gov/sops/default.htm). All PDCs were thawed and cultured in Matrigel-coated flasks prepared with a working solution of 1X Ham's F-12 nutrient mix, without supplementation (Invitrogen, Waltham, MA, cat. 11765054), 100 U/mL penicillin-streptomycin (Invitrogen, cat. 15140122), and 2.5% Matrigel (Corning Inc., Corning, NY, cat. 354248) for the first three passages. The 354836-022-R-J1-PDC, 475296-252-R-J1-PDC, and 997726-040-R-J2-PDC lines were cultured in 6A media, which includes advanced DMEM/F-12 (Thermo Fisher Scientific, cat. 12634028), 10 mM HEPES (Thermo Fisher Scientific, cat. 15630080), 1X GlutaMAX supplement (Thermo Fisher Scientific, cat. 35050061), 0.1 mg/mL primocin (InvivoGen, San Diego, CA, cat. ant-pm-2), 10% defined fetal bovine serum, heat inactivated (HyClone Laboratories Inc., Logan, UT, cat. SH30070.03HI), 50% L-WRN conditioned media (ATCC, cat. CRL-3276), 1.25 mM N-Acetyl-L-cysteine (Sigma-Aldrich, cat. A9165), 10 mM nicotinamide (Sigma-Aldrich, cat. N0636), 1X B-27 supplement (Thermo Fisher Scientific, cat. 17504044), 1X N-2 supplement (Thermo Fisher Scientific, cat. 17502048), and 10 microM Y-27632 dihydrochloride (Tocris Bioscience, Bristol, United Kingdom, cat. 1254). The 624824-186-R-J2-PDC line was cultured in 6C/Colon 1B media, which includes all 6A media components plus 50 ng/mL human EGF recombinant protein (Thermo Fisher Scientific, cat. PHG0311). […]
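Also: spheroids exposed to agents for seven days before readout.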
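For viability, T/C in this document: percent of vehicle DMSO control viability which is 100%.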

For `CCN1CCN(Cc2ccc(Nc3ncc(F)c(-c4cc(F)c5nc(C)n(C(C)C)c5c4)n3)nc2)CC1`, the viability, T/C is 81.3% and 60.8% (compound 0.00316 µM); 103% and 82.2% (compound 0.01 µM); 61.9% and 73.5% (compound 0.0316 µM); 68.2% and 59.2% (compound 0.1 µM); 55.8% and 49.5% (compound 0.316 µM); 58% and 51% (compound 1 µM). Further, under “curve of compound”, the IC50 is greater than 1000 nM.
Consider `CNC(=O)c1ccc(N2C(=S)N(c3ccc(C#N)c(C(F)(F)F)c3)C(=O)C2(C)C)cc1F`, for which the viability, T/C was 86.9% and 87.2% and 88.4% (compound 0.0316 µM); 93.2% and 97.5% and 76.6% (compound 0.1 µM); 70.6% and 71.9% and 77.2% (compound 0.316 µM); 99.3% and 68.8% and 80.3% (compound 1 µM); 84.2% and 97.4% and 67.9% (compound 3.16 µM); 65.4% and 29% and 68.9% (compound 10 µM). In addition, the concentration for half-maximal inhibition (IC50) (curve of compound) is > 10000 nM and 6480 nM.
Consider `COc1c(OCCCN2CCOCC2)ccc2c3n(c(=NC(=O)c4cnc(N)nc4)nc12)CCN3`, for which the viability, T/C is, setting by setting: (compound 0.01 µM) 83.5% [middle of 6 runs]; (compound 0.0316 µM) 60.5% [middle of 6 runs]; (compound 0.1 µM) 39.5% [middle of 6 runs]; (compound 0.316 µM) 21.5% [middle of 6 runs]; (compound 1 µM) 10.1% [middle of 6 runs]. For the same compound, the 50% inhibitory concentration (IC50) (compound alone, run of 04/25/2023) is 58.3 nM [middle of 6 runs].
In the case of `C[C@@H](NC(=O)c1ncnc(N)c1Cl)c1ncc(C(=O)Nc2cc(C(F)(F)F)c(Cl)cn2)s1`, the viability, T/C is, setting by setting: (compound 0.0316 µM) 97.5% and 79.4%; (compound 0.1 µM) 79.2% and 114%; (compound 0.316 µM) 89.2% and 87.8%; (compound 1 µM) 70.5% and 67%; (compound 3.16 µM) 113% and 64.2%; (compound 10 µM) 59.5% and 101%. Further, the 50% inhibitory concentration (IC50) (curve of compound) is greater than 10000 nM.
`Cc1nc(NC(=O)N2CCCC2C(N)=O)sc1-c1ccnc(C(C)(C)C(F)(F)F)c1` (configuration not stated): the viability, T/C (compound 10 µM) was 68.7% [middle of 6 runs]. Besides, under “compound alone, run of 04/24/2023”, the IC50 is greater than 10000 nM.
With `Cn1cnc2c(F)c(Nc3ccc(Br)cc3Cl)c(C(=O)NOCCO)cc21`, the viability, T/C is 87.3% and 90.1% (compound 0.00949 µM); 70.7% and 64.5% (compound 0.03 µM); 65% and 73.3% (compound 0.0949 µM); 62.5% and 52.7% (compound 0.3 µM); 55.5% and 55.6% (compound 0.949 µM); 33.4% and 21.9% (compound 3 µM). Also, for the setting “curve of compound”, the IC50 was 901 nM and 649 nM.
In the case of `Cn1ncc(Cl)c1-c1cc(C(=O)NC(CN)Cc2cccc(F)c2)sc1Cl` (configuration not stated), the viability, T/C (compound 0.0316 µM) is 52.7% and 85.2%; the viability, T/C (compound 0.1 µM) is 47.4% and 54.1%; the viability, T/C (compound 0.316 µM) was 31.6% and 27.1%; the viability, T/C (compound 1 µM) is 18.3% and 22.5%; the viability, T/C (compound 3.16 µM) is 16.1% and 20.2%; the viability, T/C (compound 10 µM) is 76.6% and 13.4%. The IC50 (curve of compound) is < 31.6 nM and 118 nM.
As for `Cn1nccc1Nc1nccc(-c2ccn(C(CO)c3ccc(Cl)c(F)c3)c(=O)c2)n1` (configuration not stated), the viability, T/C is 100% and 96.5% (compound 0.0316 µM); 68.5% and 79.2% (compound 0.1 µM); 84.3% and 83.6% (compound 0.316 µM); 110% and 86.8% (compound 1 µM); 71.2% and 81.6% (compound 3.16 µM); 26% and 39.2% (compound 10 µM). Further, the IC50 (curve of compound) is 5420 nM and 7460 nM.
Consider `Cn1ncnc1[C@H]1c2n[nH]c(=O)c3cc(F)cc(c23)N[C@@H]1c1ccc(F)cc1`, for which the viability, T/C (compound 0.000316 µM) was 113% and 70.3%; the viability, T/C (compound 0.001 µM) was 106% and 90.1%; the viability, T/C (compound 0.00316 µM) was 83.9% and 67%; the viability, T/C (compound 0.01 µM) is 75.3%; the viability, T/C (compound 0.0316 µM) was 55.6% and 55%; the viability, T/C (compound 0.1 µM) is 41.3% and 46.6%. Further, where the note is “curve of compound”, the concentration for half-maximal inhibition (IC50) was 51.4 nM and 62.8 nM.
